In brackets after ≈: the same amount, converted by molar mass. Activity calls are given as the source filed them. No cut-off for these calls is given here.
Legend:
Staphylococcus aureus [1] = test: Antibacterial activity against Staphylococcus aureus MTCC 96 after 24 hrs by well diffusion method; format: functional; conditions: MTCC 96, 24 h
Bacillus subtilis [2] = test: Antibacterial activity against Bacillus subtilis MTCC 121 after 24 hrs by well diffusion method; format: functional; conditions: MTCC 121, 24 h
Staphylococcus aureus [3] = test: Antibacterial activity against Staphylococcus aureus MLS16 MTCC 2940 after 24 hrs by well diffusion method; format: functional; conditions: MLS16 MTCC 2940, 24 h
Micrococcus luteus [4] = test: Antibacterial activity against Micrococcus luteus MTCC 2470 after 24 hrs by well diffusion method; format: functional; conditions: MTCC 2470, 24 h
Raoultella planticola [5] = test: Antibacterial activity against Klebsiella planticola MTCC 530 after 24 hrs by well diffusion method; format: functional; conditions: MTCC 530, 24 h
Escherichia coli [6] = test: Antibacterial activity against Escherichia coli MTCC 739 after 24 hrs by well diffusion method; format: functional; conditions: MTCC 739, 24 h
Pseudomonas aeruginosa = test: Antibacterial activity against Pseudomonas aeruginosa MTCC 2453 after 24 hrs by well diffusion method; format: functional; conditions: MTCC 2453, 24 h
Candida albicans [7] = test: Antifungal activity against Candida albicans MTCC 183 after 24 hrs by well diffusion method; format: functional; conditions: MTCC 183, 24 h
Candida albicans [8] = test: Antifungal activity against Candida albicans MTCC 227 after 24 hrs by well diffusion method; format: functional; conditions: MTCC 227, 24 h
Candida albicans [9] = test: Antifungal activity against Candida albicans MTCC 854 after 24 hrs by well diffusion method; format: functional; conditions: MTCC 854, 24 h
Candida albicans [10] = test: Antifungal activity against Candida albicans MTCC 1637 after 24 hrs by well diffusion method; format: functional; conditions: MTCC 1637, 24 h
Candida albicans [11] = test: Antifungal activity against Candida albicans MTCC 3017 after 24 hrs by well diffusion method; format: functional; conditions: MTCC 3017, 24 h
Candida albicans [12] = test: Antifungal activity against Candida albicans MTCC 3018 after 24 hrs by well diffusion method; format: functional; conditions: MTCC 3018, 24 h
Candida albicans [13] = test: Antifungal activity against Candida albicans MTCC 3958 after 24 hrs by well diffusion method; format: functional; conditions: MTCC 3958, 24 h
Candida albicans [14] = test: Antifungal activity against Candida albicans MTCC 4748 after 24 hrs by well diffusion method; format: functional; conditions: MTCC 4748, 24 h
Candida albicans [15] = test: Antifungal activity against Candida albicans MTCC 7315 after 24 hrs by well diffusion method; format: functional; conditions: MTCC 7315, 24 h
Candida parapsilosis = test: Antifungal activity against Candida parapsilosis MTCC 1744 after 24 hrs by well diffusion method; format: functional; conditions: MTCC 1744, 24 h
[Candida] aaseri = Antifungal activity against Candida aaseri MTCC 1962 after 24 hrs by well diffusion method; format: functional; conditions: Yamadazyma aaseri, MTCC 1962, 24 h
Nakaseomyces glabratus = test: Antifungal activity against Candida glabrata MTCC 3019 after 24 hrs by well diffusion method; format: functional; conditions: MTCC 3019, 24 h
Pichia kudriavzevii = test: Antifungal activity against Candida krusei MTCC 3020 after 24 hrs by well diffusion method; format: functional; conditions: MTCC 3020, 24 h
Pichia sporocuriosa = test: Antifungal activity against Issatchenkia hanoiensis MTCC 4755 after 24 hrs by well diffusion method; format: functional; conditions: MTCC 4755, 24 h
Staphylococcus aureus [16] = test: Antibiofilm activity against Staphylococcus aureus MTCC 96 after 24 hrs by crystal violet staining based method; format: functional; conditions: MTCC 96, 24 h
Bacillus subtilis [17] = test: Antibiofilm activity against Bacillus subtilis MTCC 121 after 24 hrs by crystal violet staining based method; format: functional; conditions: MTCC 121, 24 h
Staphylococcus aureus [18] = test: Antibiofilm activity against Staphylococcus aureus MLS16 MTCC 2940 after 24 hrs by crystal violet staining based method; format: functional; conditions: MLS16 MTCC 2940, 24 h
Micrococcus luteus [19] = test: Antibiofilm activity against Micrococcus luteus MTCC 2470 after 24 hrs by crystal violet staining based method; format: functional; conditions: MTCC 2470, 24 h
Escherichia coli [20] = test: Antibiofilm activity against Escherichia coli MTCC 739 after 24 hrs by crystal violet staining based method; format: functional; conditions: MTCC 739, 24 h
Raoultella planticola [21] = test: Antibiofilm activity against Klebsiella planticola MTCC 530 after 24 hrs by crystal violet staining based method; format: functional; conditions: MTCC 530, 24 h
Candida albicans [22] = test: Antibiofilm activity against Candida albicans MTCC 4748 after 24 hrs by crystal violet staining based method; format: functional; conditions: MTCC 4748, 24 h
Staphylococcus aureus [23] = test: Induction of intracellular ROS accumulation in Staphylococcus aureus MLS16 MTCC 2940 sessile biofilm cells assessed as fluorescence intensity at 1 ug/ml after 24 hrs by DCFH-DA staining-based fluorescence assay (reference value: 62 +/- 9.8 a.u.); format: functional
Staphylococcus aureus [24] = test: Induction of intracellular ROS accumulation in Staphylococcus aureus MLS16 MTCC 2940 sessile biofilm cells assessed as fluorescence intensity at 2 ug/ml after 24 hrs by DCFH-DA staining-based fluorescence assay (reference value: 62 +/- 9.8 a.u.); format: functional
Staphylococcus aureus [25] = test: Induction of intracellular ROS accumulation in Staphylococcus aureus MLS16 MTCC 2940 sessile biofilm cells assessed as fluorescence intensity at 3 ug/ml after 24 hrs by DCFH-DA staining-based fluorescence assay (reference value: 62 +/- 9.8 a.u.); format: functional
Staphylococcus aureus [26] = test: Induction of intracellular ROS accumulation in Staphylococcus aureus MLS16 MTCC 2940 sessile biofilm cells assessed as fluorescence intensity at 4 ug/ml after 24 hrs by DCFH-DA staining-based fluorescence assay (reference value: 62 +/- 9.8 a.u.); format: functional
HeLa [27] = test: Cytotoxicity against human HeLa cells after 24 hrs by MTT assay; format: functional, cell-based
HepG2 [28] = test: Cytotoxicity against human HepG2 cells after 24 hrs by MTT assay; format: functional, cell-based; conditions: HepG2, 24 h
A549 [29] = test: Cytotoxicity against human A549 cells after 24 hrs by MTT assay; format: functional, cell-based; conditions: A549, 24 h
COLO 205 [30] = test: Cytotoxicity against human COLO205 cells after 24 hrs by MTT assay; format: functional, cell-based; conditions: COLO 205, 24 h
HeLa [31] = test: Cytotoxicity against human HeLa cells at >100 uM after 24 hrs by MTT assay; format: functional, cell-based
HepG2 [32] = test: Cytotoxicity against human HepG2 cells at >100 uM after 24 hrs by MTT assay; format: functional, cell-based
A549 [33] = test: Cytotoxicity against human A549 cells at >100 uM after 24 hrs by MTT assay; format: functional, cell-based
COLO 205 [34] = test: Cytotoxicity against human COLO205 cells at >100 uM after 24 hrs by MTT assay; format: functional, cell-based

Compound	MIC (Staphylococcus aureus [1]) [µg/mL]	MIC (Bacillus subtilis [2]) [µg/mL]	MIC (Staphylococcus aureus [3]) [µg/mL]	MIC (Micrococcus luteus [4]) [µg/mL]	MIC (Raoultella planticola [5]) [µg/mL]	MIC (Escherichia coli [6]) [µg/mL]	MIC (Pseudomonas aeruginosa) [µg/mL]	MIC (Candida albicans [7]) [µg/mL]	MIC (Candida albicans [8]) [µg/mL]	MIC (Candida albicans [9]) [µg/mL]	MIC (Candida albicans [10]) [µg/mL]	MIC (Candida albicans [11]) [µg/mL]	MIC (Candida albicans [12]) [µg/mL]	MIC (Candida albicans [13]) [µg/mL]	MIC (Candida albicans [14]) [µg/mL]	MIC (Candida albicans [15]) [µg/mL]	MIC (Candida parapsilosis) [µg/mL]	MIC ([Candida] aaseri) [µg/mL]	MIC (Nakaseomyces glabratus) [µg/mL]	MIC (Pichia kudriavzevii) [µg/mL]	further results
O=C(Cn1nc(C(F)(F)F)c2c(-c3ccccc3)c3ccccc3nc21)NCCN1CCNCC1	7.8 (≈ 16.2 µM)	3.9 (≈ 8.08 µM)	3.9 (≈ 8.08 µM)	3.9 (≈ 8.08 µM)	3.9 (≈ 8.08 µM)	7.8 (≈ 16.2 µM)	> 125	7.8 (≈ 16.2 µM)	15.6 (≈ 32.3 µM)	15.6 (≈ 32.3 µM)	7.8 (≈ 16.2 µM)	7.8 (≈ 16.2 µM)	15.6 (≈ 32.3 µM)	15.6 (≈ 32.3 µM)	7.8 (≈ 16.2 µM)	15.6 (≈ 32.3 µM)	7.8 (≈ 16.2 µM)	15.6 (≈ 32.3 µM)	15.6 (≈ 32.3 µM)	15.6 (≈ 32.3 µM)	MIC (Pichia sporocuriosa): 7.8 µg/mL (≈ 16.2 µM); IC50 (Staphylococcus aureus [16]): 4.1 µM; IC50 (Bacillus subtilis [17]): 2.2 µM; IC50 (Staphylococcus aureus [18]): 2.1 µM; IC50 (Micrococcus luteus [19]): 2.5 µM; IC50 (Escherichia coli [20]): 4.2 µM; IC50 (Raoultella planticola [21]): 2.3 µM; IC50 (Candida albicans [22]): 5.1 µM; Flu intensity (Staphylococcus aureus [23]): 492 a.u.; Flu intensity (Staphylococcus aureus [24]): 792 a.u.; Flu intensity (Staphylococcus aureus [25]): 101 a.u.; Flu intensity (Staphylococcus aureus [26]): 1342 a.u.; IC50 (HeLa [27]): 13.6 µM; IC50 (HepG2 [28]): 11.2 µM; IC50 (A549 [29]): 10.6 µM; IC50 (COLO 205 [30]): 12.2 µM
O=C(Cn1nc(C(F)(F)F)c2c(-c3ccccc3)c3ccccc3nc21)N1CCOCC1	62.5 (≈ 142 µM)	31.2 (≈ 70.8 µM)	31.2 (≈ 70.8 µM)	15.6 (≈ 35.4 µM)	15.6 (≈ 35.4 µM)	62.5 (≈ 142 µM)	> 125	31.2 (≈ 70.8 µM)	62.5 (≈ 142 µM)	62.5 (≈ 142 µM)	62.5 (≈ 142 µM)	31.2 (≈ 70.8 µM)	31.2 (≈ 70.8 µM)	31.2 (≈ 70.8 µM)	31.2 (≈ 70.8 µM)	15.6 (≈ 35.4 µM)	31.2 (≈ 70.8 µM)	62.5 (≈ 142 µM)	31.2 (≈ 70.8 µM)	31.2 (≈ 70.8 µM)	MIC (Pichia sporocuriosa): 15.6 µg/mL (≈ 35.4 µM); Activity (HeLa [31]): inactive; Activity (HepG2 [32]): inactive; Activity (A549 [33]): inactive; Activity (COLO 205 [34]): inactive
Cc1c2ccccc2nc2c1c(C(F)(F)F)nn2CC(=O)N1CCOCC1	7.8 to 125 (≈ 20.6 to 330 µM)	7.8 to 125 (≈ 20.6 to 330 µM)	7.8 to 125 (≈ 20.6 to 330 µM)	7.8 to 125 (≈ 20.6 to 330 µM)	7.8 to 125 (≈ 20.6 to 330 µM)	7.8 to 125 (≈ 20.6 to 330 µM)	7.8 to 125 (≈ 20.6 to 330 µM)														Activity (HeLa [31]): inactive; Activity (HepG2 [32]): inactive; Activity (A549 [33]): inactive; Activity (COLO 205 [34]): inactive
O=C(O)c1cn(C2CC2)c2cc(N3CCNCC3)c(F)cc2c1=O [CIPROFLOXACIN]	0.9 (≈ 2.72 µM)	0.9 (≈ 2.72 µM)	0.9 (≈ 2.72 µM)	0.9 (≈ 2.72 µM)	0.9 (≈ 2.72 µM)	0.9 (≈ 2.72 µM)	0.9 (≈ 2.72 µM)														IC50 (Bacillus subtilis [17]): 0.6 µM; IC50 (Escherichia coli [20]): 0.8 µM; Flu intensity (Staphylococcus aureus [23]): 601 a.u.; Flu intensity (Staphylococcus aureus [24]): 925 a.u.; Flu intensity (Staphylococcus aureus [25]): 1952 a.u.; Flu intensity (Staphylococcus aureus [26]): 2010 a.u.
